Results as given in patent US20050112128A1, “Inhibition of protein kinase c-mu (PKD) as a treatment for cardiac hypertrophy and heart failure” (Myogen, Inc. and Board of Regents, The University of Texas …, priority 2003, published 2005).
“Also recorded” adds a separate entry of the source. Where no end group is shown, it is not given here.

Test system: nuclear export of HDAC5 in COS cells
Assay: GFP-HDAC5 nuclear export in transfected COS cells (fluorescence microscopy)
Format: cell-based
Settings: COS cells transfected with GFP-HDAC5; 60 min after addition of compounds
Description: FIGS. 1A-D—PKC-dependent nuclear export of HDAC5. FIG. 1A. COS cells were cultured on 6-well dishes, transfected with a GFP-HDAC5 expression vector (1 μg) and stimulated with the indicated compounds, as described in Materials and Methods. Sixty minutes after addition of compounds, GFP-HDAC5 distribution was determined by fluorescence microscopy. […] FIG. 1B. COS cells were transfected with expression vectors encoding FLAG-tagged versions of either HDAC5 or an HDAC5 mutant harboring alanines in place of serines 259 and 498 (HDAC5 S259/498A) (1 μg each). Cells were stimulated with PMA for 60 min and HDAC5 distribution was determined by indirect immunofluorescence with anti-FLAG primary antibody and fluorecein-conjugated secondary antibody. HDAC5 259/498A is refractory to PMA stimulation. FIG. 1C. COS cells transfected with GFPHDAC5 encoding expression vector (1 μg) and stimulated with PMA for the indicated times. FIG. 1D. COS cells were transiently transfected with expression vectors encoding FLAG-tagged versions of HDAC5 or HDAC5 S259/498A (1 μg each). Cells were pretreated with the PKC inhibitor bisindolylmaleimide (Bis I; 10 μM) for 30 minutes and stimulated with PMA for 30 min, as indicated. Association of FLAG-HDAC5 with endogenous 14-3-3 was detected by sequential immunoprecipitation and immunoblotting.
Cell culture and transfection assays. COS cells were maintained in DMEM with FBS (10%), L-glutamine (2 mM), and penicillin-streptomycin. Transfection of COS cells was performed with Fugene 6 (Roche Molecular Biochemicals) according to manufacturer's instructions. For HDAC localization experiments, cells were treated 16-24 hours after transfection with PMA (100 nM), ionomycin […], 8-Br-cAMP (1 mM), pCPT-GMP (1 mM), or anisomycin (1 mM). Where noted, specific protein kinase inhibitors were added 30 min prior to the addition of any chemical stimulus. GFP-HDAC5 was visualized with standard fluorescent microscopic techniques. For indirect immunofluorescence of FLAG-HDAC5, COS cells were seeded on glass coverslips, transfected, and treated as above. After specific treatment, cells were fixed with buffered formalin (10%) and stained in PBS containing BSA (3%) and Nonidet P-40 (0.1%). Flag M2 antibody (Sigma) was used at a concentration of 1:200. Secondary fluoresceine-conjugated antibody (Vector Laboratories) was also used at a concentration of 1:200. Staining of cardiomyocytes for sarcomeres and atrial natriuretic factor (ANF) was performed by indirect immunofluorescence detection as above with antibodies directed against sarcomeric α-actinin (Sigma) and ANF (Peninsula Laboratories), respectively.

Molecule	stimulation of nuclear export of GFP-HDAC5
C[C@H](CCC(=O)O)C[C@H](C)C[C@H](C)C(=O)/C=C(\O)[C@H](C)C[C@H](C)C/C=C/[C@@H](C)[C@@H](O)[C@@H](C)[C@@H](O)C[C@@H]1CC[C@@](C)([C@H]2CC[C@@](C)([C@@H](C)O)O2)O1 [ionomycin]	partial response; also recorded: stimulated nuclear export of GFP-HDAC5
COc1ccc(C[C@H]2NC[C@H](O)[C@H]2OC(C)=O)cc1 [anisomycin]	only ionomycin and PMA stimulated nuclear export
Nc1ncnc2c1nc(Br)n2[C@@H]1O[C@@H]2COP(=O)(O)O[C@H]2[C@H]1O [8-Br-cAMP]	only ionomycin and PMA stimulated nuclear export
Nc1nc2c(nc(Sc3ccc(Cl)cc3)n2[C@@H]2O[C@@H]3COP(=O)(O)O[C@H]3[C@H]2O)c(=O)[nH]1 [pCPT-GMP]	only ionomycin and PMA stimulated nuclear export

Test system: nuclear export of GFP-HDAC5 in NRVMs
Assay: Quantitative HDAC5 nuclear export assay in NRVMs (Cellomics High Content Imaging System)
Format: cell-based, rat
Settings: NRVMs infected with Ad-GFP-HDAC5; PE 0.1 to 20 μM, 2 hrs; ET-1 50 nM; FBS 10%

Molecule	agonist-triggered nuclear export of HDAC5 in cardiomyocytes
Endothelin-1 (CSCSSLMDKECVYFCHLDIIW; ends and bridges not checked; cysteine pairing not given here; UniProt P05305 53-73, looked up) [ET-1, hypertrophic agonist purchased from Sigma]	effectively promote nuclear export of HDAC5

Same assay, conditions: NRVMs; PE 20 μM, 2 hrs; inhibitor pre-treatment 30 min; KN93, wortmannin, staurosporine 1 mM; U1026, HA1077, Y-27632, DAG Kinase inhibitor II, SB216763, Bis I 10 mM; rapamycin 30 ng/ml; Gö6983 10 μM

Molecule	block of PE-induced nuclear export of HDAC5
O=c1c2ccccc2[nH]c(=S)n1CCN1CCC(=C(c2ccc(F)cc2)c2ccc(F)cc2)CC1 [DAGK inhibitor II]	did not significantly affect PE-induced nuclear export of HDAC5
N#CC(=C(/N)Sc1ccccc1N)/C(C#N)=C(/N)Sc1ccccc1N [U1026]	did not significantly affect PE-induced nuclear export of HDAC5
COc1ccc(S(=O)(=O)N(CCO)c2ccccc2CN(C)C/C=C/c2ccc(Cl)cc2)cc1 [KN93]	did not significantly affect PE-induced nuclear export of HDAC5
O=S(=O)(c1cccc2cnccc12)N1CCCNCC1 [HA1077]	did not significantly affect PE-induced nuclear export of HDAC5
Cn1cc(C2=C(c3ccc(Cl)cc3Cl)C(=O)NC2=O)c2ccccc21 [SB216763]	did not significantly affect PE-induced nuclear export of HDAC5
CN[C@@H]1C[C@H]2O[C@@](C)([C@@H]1OC)n1c3ccccc3c3c4c(c5c6ccccc6n2c5c31)C(=O)NC4 [staurosporine]	effective in blocking PE-dependent export of HDAC5; also recorded: effective in blocking HDAC5 nuclear export
C[C@@H](N)[C@H]1CC[C@H](C(=O)Nc2ccncc2)CC1 [Y-27632]	did not significantly affect PE-induced nuclear export of HDAC5
